Measurements reported in a compilation of properties of binary mixtures (doi:10.1016/j.molliq.2017.03.036).

Test: xn = mol fraction of the nth substance listed
Conditions: 101 kPa, x2 = 0

CN(CCO)CCO + CC(=O)[O-].CC[n+]1ccn(C)c1
Conditions	electrical conductivity [S/m]	viscosity [mPa·s]
288.15 K	0.0002	137.6
293.15 K	0.0003	101.2
298.15 K	0.0004	74.8
303.15 K	0.0005	57.2
308.15 K	0.0007	43
313.15 K	0.0009	34.1
318.15 K	0.0011	26.1
323.15 K	0.0014	21.6
333.15 K	0.0024	14.19
348.15 K	0.0046	8.13
353.15 K	0.0056	7.09
